Like-named read-outs stand apart in the source and are kept apart here.
Key:
influenza virus = format: in vivo, human
type B influenza virus = format: in vivo, human; conditions: for median time to improvement of influenza symptoms: BXM single dose 40/80 mg, oseltamivir 75 mg twice daily for 5 days
[1] = Plasma concentration after oral administration of prodrug Compound II-6 to rats under non-fasting conditions; format: in vivo
Excerpt: FIGS. 1 and 2 show a result of measuring the plasma concentration of Compound III and
Compound II-6, respectively, after oral administration of prodrug Compound II-6 to rats under non-fasting conditions.

Baloxavir marboxil [II-6]
primary endpoint (time to improvement of influenza symptoms) compared with placebo (influenza virus; BXM 40 or 80 mg single oral dose): statistically significant improvement
change from baseline in an influenza virus titer [log 10(TCID50/mL)] by time (influenza virus; by day 2, vs placebo and oseltamivir): statistically significantly superior to placebo and oseltamivir
Difference between BXM and placebo in Time to Improvement of Influenza Symptoms (influenza virus; difference of medians, generalized Wilcoxon test p-value <0.0001): −29.1
Time to Improvement of Influenza Symptoms (influenza virus; median, BXM 40/80 mg single oral dose by body weight, N = 385, ITTI population): 73.2
incidence of influenza-related complication: bronchitis (influenza virus; vs placebo): statistically signicantly superior to placebo
incidence of influenza-related complication: sinusitis (influenza virus; vs placebo): statistically signicantly superior to placebo
time to cessation of viral shedding by a virus titer (influenza virus; vs placebo and oseltamivir): statistically significantly superior to placebo and oseltamivir
incidence of influenza-related complications, any complications (influenza virus; vs placebo, Fisher's exact test): statistically significantly superior to placebo
median time to improvement of influenza symptoms (type B influenza virus; […]): 74.6 h
change from baseline in an influenza virus titer [log 10(TCID50/mL)] by time, type B virus (type B influenza virus; […], by day 2, vs placebo and oseltamivir): statistically significantly superior to placebo and oseltamivir
median difference in time to improvement of influenza symptoms, BXM vs placebo (type B influenza virus; type B influenza virus, generalized Wilcoxon test p-value=0.0138): -26.0 h
median difference in time to improvement of influenza symptoms, BXM vs oseltamivir (type B influenza virus; type B influenza virus, generalized Wilcoxon test p-value=0.0251): -27.1 h

COC(=O)OCOc1c2n(ccc1=O)N([C@@H]1c3ccccc3SCc3c1ccc(F)c3F)[C@@H]1COCCN1C2=O [II-6, Baloxavir marboxil]
concentration of Compound II-6 in plasma ([1]; non-fasting, oral II-6 0.3, 1, 3 and 10 mg/kg, all time points 0.25 h to 24 h, below limit of quantification): < 0.500 ng/mL
conversion of prodrug to Compound III in vivo after administration ([1]; oral administration): metabolized promptly to Compound III

CCOC(=O)C1=C[C@@H](OC(CC)CC)[C@H](NC(C)=O)[C@@H](N)C1 [oseltamivir, reference compound]
median time to improvement of influenza symptoms (type B influenza virus; patients infected with type B influenza virus): 101.6 h

Reference: US20200289522A1 (Shionogi & Co., Ltd., priority 2019, published 2020)
